How the values were obtained:
Type in all cases: in vivo
[1] = tested on: ragweed (common ragweed, Ambrosia elatior); test: Test A preemergence, directed soil spray; settings: approx. 10 days
Excerpt: (§1) Seeds of plant species selected from barnyardgrass (Echinochloa crus-galli), kochia (Kochia scoparia), ragweed (common ragweed, Ambrosia elatior), Italian ryegrass (Lolium multiflorum), giant foxtail (Setaria faberii), and pigweed (Amaranthus retroflexus) were planted into a blend of loam soil and sand and treated preemergence with a directed soil spray using test chemicals formulated in a non-phytotoxic solvent mixture which included a surfactant. At the same time, plants selected from these weed species and also wheat (Triticum aestivum), corn (Zea mays), blackgrass (Alopecurus myosuroides), and galium (catchweed bedstraw, Galium aparine) were planted in pots containing the same blend of loam soil and sand and treated with postemergence applications of test chemicals formulated in the same manner. Plants ranged in height from 2 to 10 cm and were in the one- to two-leaf stage for the postemergence treatment. Treated plants and untreated controls were maintained in a greenhouse for approximately 10 days, after which time all treated plants were compared to untreated controls and visually evaluated for injury. Plant response ratings, summarized in Table A, are based on a 0 to 100 scale where 0 is no effect and 100 is complete control. A dash (-) response means no test result.

[2] = tested on: Italian ryegrass (Lolium multiflorum); test: Test A preemergence, directed soil spray; settings: approx. 10 days
Excerpt: as §1

[3] = tested on: barnyardgrass (Echinochloa crus-galli); test: Test A preemergence, directed soil spray; settings: approx. 10 days
Excerpt: as §1

[4] = tested on: giant foxtail (Setaria faberii); test: Test A preemergence, directed soil spray; settings: approx. 10 days
Excerpt: as §1

kochia (Kochia scoparia) = test: Test A preemergence, directed soil spray; settings: approx. 10 days
Excerpt: as §1

[5] = tested on: pigweed (Amaranthus retroflexus); test: Test A preemergence, directed soil spray; settings: approx. 10 days
Excerpt: as §1

[6] = tested on: ducksalad (Heteranthera limosa); test: Test B flooded paddy test; design: key: 0 = no effect, 100 = complete control; settings: Flood, 250 g ai/ha applied to paddy water at 2-leaf stage; visually evaluated after 13 to 15 days; scale 0 (no effect) to 100 (complete control)
Description: (§2) Plant species in the flooded paddy test selected from rice (Oryza sativa), sedge, umbrella (small-flower umbrella sedge, Cyperus difformis), ducksalad (Heteranthera limosa), and barnyardgrass (Echinochloa crus-galli) were grown to the 2-leaf stage for testing. At time of treatment, test pots were flooded to 3 cm above the soil surface, treated by application of test compounds directly to the paddy water, and then maintained at that water depth for the duration of the test. Treated plants and controls were maintained in a greenhouse for 13 to 15 days, after which time all species were compared to controls and visually evaluated. Plant response ratings, summarized in Table B, are based on a scale of 0 to 100 where 0 is no effect and 100 is complete control. A dash (-) response means no test result.

[7] = tested on: barnyardgrass (Echinochloa crus-galli); test: Test B flooded paddy test; design: key: 0 = no effect, 100 = complete control; settings: Flood, 250 g ai/ha applied to paddy water at 2-leaf stage; visually evaluated after 13 to 15 days; scale 0 (no effect) to 100 (complete control)
Description: as §2

rice (Oryza sativa) = test: Test B flooded paddy test; design: key: 0 = no effect, 100 = complete control; settings: Flood, 250 g ai/ha applied to paddy water at 2-leaf stage; visually evaluated after 13 to 15 days; scale 0 (no effect) to 100 (complete control)
Description: as §2

[8] = tested on: sedge, umbrella (small-flower umbrella sedge, Cyperus difformis); test: Test B flooded paddy test; design: key: 0 = no effect, 100 = complete control; settings: Flood, 250 g ai/ha applied to paddy water at 2-leaf stage; visually evaluated after 13 to 15 days; scale 0 (no effect) to 100 (complete control)
Description: as §2

[9] = tested on: lambsquarters (Chenopodium album); test: Test C preemergence; settings: scale 0 to 100, 0 is no effect, 100 is complete control
Excerpt: (§3) Seeds of plant species selected from blackgrass (Alopecurus myosuroides), Italian ryegrass (Lolium multiflorum), winter wheat (Triticum aestivum), galium (catchweed bedstraw, Galium aparine), corn (Zea mays), large (Lg) crabgrass (Digitaria sanguinalis), giant foxtail (Setaria faberii), johnsongrass (Sorghum halepense), lambsquarters (Chenopodium album), morningglory (Ipomoea coccinea), yellow nutsedge (Cyperus esculentus), pigweed (Amaranthus retroflexus), ragweed (common ragweed, Ambrosia elatior), soybean (Glycine max), barnyardgrass (Echinochloa crus-galli), oilseed rape (Brassica napus), waterhemp (common waterhemp, Amaranthus rudis), and velvetleaf (Abutilon theophrasti) were planted into a blend of loam soil and sand and treated preemergence with test chemicals formulated in a non-phytotoxic solvent mixture which included a surfactant. At the same time, plants selected from these crop and weed species and also chickweed (common chickweed, Stellaria media), kochia (Kochia scoparia), and wild oat (Avena fatua), were planted in pots containing Sunshine Redi-Earth® planting medium comprising spaghnum peat moss, vermiculite, starter nutrients and dolomitic limestone and treated with postemergence applications of test chemicals formulated in the same manner. Plants ranged in height from 2 to 18 cm (1- to 4-leaf stage) for postemergence treatments. Treated plants and controls were maintained in a greenhouse for 13 to 15 days, after which time all species were compared to controls and visually evaluated. Plant response ratings, summarized in Table C, are based on a scale of 0 to 100 where 0 is no effect and 100 is complete control. A dash (-) response means no test result.

[10] = tested on: blackgrass (Alopecurus myosuroides); test: Test C preemergence; settings: scale 0 to 100, 0 is no effect, 100 is complete control
Excerpt: as §3

[11] = tested on: large (Lg) crabgrass (Digitaria sanguinalis); test: Test C preemergence; settings: scale 0 to 100, 0 is no effect, 100 is complete control
Excerpt: as §3

[12] = tested on: giant foxtail (Setaria faberii); test: Test C preemergence; settings: scale 0 to 100, 0 is no effect, 100 is complete control
Excerpt: as §3

[13] = tested on: pigweed (Amaranthus retroflexus); test: Test C preemergence; settings: scale 0 to 100, 0 is no effect, 100 is complete control
Excerpt: as §3

[14] = tested on: johnsongrass (Sorghum halepense); test: Test C preemergence; settings: scale 0 to 100, 0 is no effect, 100 is complete control
Excerpt: as §3

[15] = tested on: galium (catchweed bedstraw, Galium aparine); test: Test C preemergence; settings: scale 0 to 100, 0 is no effect, 100 is complete control
Excerpt: as §3

soybean (Glycine max) = test: Test C preemergence; settings: scale 0 to 100, 0 is no effect, 100 is complete control
Excerpt: as §3

[16] = tested on: waterhemp (common waterhemp, Amaranthus rudis); test: Test C preemergence; settings: scale 0 to 100, 0 is no effect, 100 is complete control
Excerpt: as §3

O=c1cccc(Oc2ncc(Cl)cn2)n1-c1ccc(Cl)cc1 [Compound 1, 1-(4-chlorophenyl)-6-[(5-chloro-2-pyrimidinyl)oxy]-2(1H)-pyridinone]
Plant response rating (0 to 100 scale, 0 no effect, 100 complete control), Ragweed ([1]; 125 g ai/ha): 0
Plant response rating (0 to 100 scale, 0 no effect, 100 complete control), Ragweed ([1]; 500 g ai/ha): 20
Plant response rating (0 to 100 scale, 0 no effect, 100 complete control), Ryegrass, Italian ([2]; 125 g ai/ha): 0
Plant response rating (0 to 100 scale, 0 no effect, 100 complete control), Ryegrass, Italian ([2]; 500 g ai/ha): 20
Plant response rating (0 to 100 scale, 0 no effect, 100 complete control), Barnyardgrass ([3]; 125 g ai/ha): 30
Plant response rating (0 to 100 scale, 0 no effect, 100 complete control), Barnyardgrass ([3]; 500 g ai/ha): 100
Plant response rating (0 to 100 scale, 0 no effect, 100 complete control), Foxtail, Giant ([4]; 125 g ai/ha): 90
Plant response rating (0 to 100 scale, 0 no effect, 100 complete control), Foxtail, Giant ([4]; 500 g ai/ha): 100
Plant response rating (0 to 100 scale, 0 no effect, 100 complete control), Kochia (kochia (Kochia scoparia); 125 g ai/ha): 40
Plant response rating (0 to 100 scale, 0 no effect, 100 complete control), Kochia (kochia (Kochia scoparia); 500 g ai/ha): 100
Plant response rating (0 to 100 scale, 0 no effect, 100 complete control), Pigweed ([5]; 125 g ai/ha): 40
Plant response rating (0 to 100 scale, 0 no effect, 100 complete control), Pigweed ([5]; 500 g ai/ha): 100
Plant response rating, Ducksalad [6]: 45
Plant response rating, Barnyardgrass [7]: 20
Plant response rating, Rice (rice (Oryza sativa)): 10
Plant response rating, Sedge, Umbrella [8]: 65
Plant response rating, Lambsquarters ([9]; 16 g ai/ha): 30
Plant response rating, Lambsquarters ([9]; 31 g ai/ha): 20
Plant response rating, Lambsquarters ([9]; 62 g ai/ha): 45
Plant response rating, Lambsquarters ([9]; 125 g ai/ha): 60
Plant response rating, Blackgrass ([10]; 16 g ai/ha): 0
Plant response rating, Blackgrass ([10]; 31 g ai/ha): 20
Plant response rating, Blackgrass ([10]; 62 g ai/ha): 25
Plant response rating, Blackgrass ([10]; 125 g ai/ha): 85
Plant response rating, Crabgrass, Large ([11]; 16 g ai/ha): 5
Plant response rating, Crabgrass, Large ([11]; 31 g ai/ha): 70
Plant response rating, Crabgrass, Large ([11]; 62 g ai/ha): 98
Plant response rating, Crabgrass, Large ([11]; 125 g ai/ha): 100
Plant response rating, Foxtail, Giant ([12]; 16 g ai/ha): 10
Plant response rating, Foxtail, Giant ([12]; 31 g ai/ha): 55
Plant response rating, Foxtail, Giant ([12]; 62 g ai/ha): 90
Plant response rating, Foxtail, Giant ([12]; 125 g ai/ha): 100
Plant response rating, Pigweed ([13]; 16 g ai/ha): 25
Plant response rating, Pigweed ([13]; 31 g ai/ha): 65
Plant response rating, Pigweed ([13]; 62 g ai/ha): 75
Plant response rating, Pigweed ([13]; 125 g ai/ha): 100
Plant response rating, Johnsongrass ([14]; 16 g ai/ha): 0
Plant response rating, Johnsongrass ([14]; 31 g ai/ha): 0
Plant response rating, Johnsongrass ([14]; 62 g ai/ha): 5
Plant response rating, Johnsongrass ([14]; 125 g ai/ha): 15
Plant response rating, Galium ([15]; 16 g ai/ha): 90
Plant response rating, Galium ([15]; 31 g ai/ha): 0
Plant response rating, Galium ([15]; 62 g ai/ha): 0
Plant response rating, Galium ([15]; 125 g ai/ha): 40
Plant response rating, Soybean (soybean (Glycine max); 16 g ai/ha): 0
Plant response rating, Soybean (soybean (Glycine max); 31 g ai/ha): 10
Plant response rating, Soybean (soybean (Glycine max); 62 g ai/ha): 10
Plant response rating, Waterhemp ([16]; 16 g ai/ha): 20
Plant response rating, Waterhemp ([16]; 31 g ai/ha): 65
Plant response rating, Waterhemp ([16]; 62 g ai/ha): 100
Plant response rating, Waterhemp ([16]; 125 g ai/ha): 100
